This is an account of results in patent US9012475B2, “Method for enhancing anti-tumor effect of a microtubule-targeting drug, and a method for treatment of tumor” (Taiho Pharmaceutical Co., Ltd., priority 2013, dated 2015).

SMILES strings stand for the structures. pIC50: −log10 of the molar value. Entries after “also recorded” stand apart in the source; their conditions may differ. Like-named read-outs stand apart in the source and are kept apart here.

The conditions of series [1]: then 24 hours later MK-5108 orally twice per day over 2 days; cited from earlier work.
Series [2] relates to human-derived uterus cancer cell strain HeLa-luc. The following applies: for number of CR cases: 5 rats. An excerpt: Cells (1×10^7) of human-derived uterus cancer cell strain HeLa-luc (manufactured by PerkinElmer Co., Ltd.) having a luciferase gene introduced therein were subcutaneously grafted to the right abdomens of nude rats. At the time the volume of a tumor developed from grafted cells reached about 200 mm^3, the rats were divided into groups each consisting of 5 rats according to stratified randomization such that each group had almost the same tumor volume. […] To Group 2 and 3, paclitaxel was administered and, on the next day, Compound 1 (30 mg/kg) was orally administered twice per day for one day or 4 days (sequential administration, see FIG. 1 (A), Sequential treatment). To the rats of Group 4 and 5, paclitaxel was administered and, on the same day, Compound 1 (30 mg/kg) was orally administered twice per day for 2 days or 4 days (concurrent administration, see FIG. 1 (B), Concurrent treatment). Compound 1 was suspended or dissolved in 0.5% (w/v) hydroxypropyl methyl cellulose (HPMC). Paclitaxel was dissolved in Cremophor EL and anhydrous ethanol, diluted with physiological saline so as to obtain a predetermined concentration and put in use.
The presence or absence of a therapeutic effect was determined by measuring the major axis and minor axis of a tumor with time and obtaining a tumor volume (TV), relative tumor volume (RTV) and T/C (%) value (average relative tumor volume ratio of the treatment group to the control group) on day 10 after initiation of administration according to the following expressions. Tumor volume (TV)={(major axis)×(minor axis)^2}/2 Relative tumor volume (RTVn) on measurement day (n)=TVn/TV1 T/C(%)={(average RTVn of treatment group)/(average RTVn of control group)}×100
TV1 represents tumor volume at the administration initiation time
Furthermore, an individual in which a tumor disappeared was specified as CR (complete remission/complete response) and the number of cases was obtained.

The target in the next series is human Aurora A (Homo sapiens (Human), UniProt O14965). In words: Measurement of Aurora A inhibitory activity (IMAP fluorescence polarization kinase assay). In kind it is biochemical. As to conditions: ATP 5 μM, 25° C., 50 minutes. On the procedure: (§1) The inhibitory activities of a test compound against Aurora A and Aurora B were measured according to the following method.
Complementary DNA of human Aurora A was fused with a histidine tag at the amino terminal, inserted into an expression vector and highly expressed in Escherichia coli BL21-CodonPlus (DE3)-RIL strain. After Escherichia coli was recovered and lysed, human Aurora A protein fused with a histidine tag was allowed to bind to a nickel chelate column and eluted by imidazole from the column. An active fraction was desalted by a desalting column to obtain purified enzyme.
In measuring inhibitory activity of the compound, first, the test compound was serially diluted by dimethylsulfoxide (DMSO). […] To the mixture, IMAP (registered trade mark) Progressive Binding Reagent diluted 500× with IMAP (registered trade mark) Progressive Binding Buffer A (manufactured by Molecular Devices) was added to terminate the kinase reaction. […] Based on the obtained fluorescence polarization degree, the amount of phosphorylation reaction was obtained.

The target in another series is human Aurora B (Homo sapiens (Human), UniProt Q96GD4). In words: Measurement of Aurora B kinase activity. The following applies: ATP 40 μM, 60 minutes. In kind it is biochemical. As for the experimental part: as §1
The concentration of the compound at which 50% of the phosphorylation reaction was suppressed was defined as IC50 value (nM).

For series [3], the system named is human-derived lung cancer cell strain NCI-H460 (H460). In words: Schedule of administration in combination with paclitaxel, NCI-H460 subcutaneous graft. In kind it is in vivo. As for the experimental part:
The study was performed according to the method in Example 1. Cells (1×10^7) of human-derived lung cancer cell strain NCI-H460 (H460) were subcutaneously grafted to right abdomens of nude mice. […] Group 1 was defined as a control group, Group 2 and 3 were defined as a paclitaxel single administration group and Compound 1 single administration group, respectively. Group 4 and 5 were defined as an administration group in combination with paclitaxel and Compound 1. Paclitaxel was intravenously administered in a dose of 60 mg/kg twice, i.e., day 1 and day 8 (Group 2, 4 and 5). In Group 3 and 5, Compound 1 was orally administered twice per day in a dose of 60 mg/kg, for 4 days from the next day of paclitaxel administration and for 4 days from day 9 of paclitaxel administration. In Group 4, Compound 1 was orally administered twice per day in a dose of 60 mg/kg from the next day of paclitaxel administration for 2 days and from day 9 for 2 days. In Group 3, 4 and 5, the dose per day of Compound 1 was 120 mg/kg/day. […]
Furthermore, the body weights of mice were measured with time and a body weight change rate (BWC) was computationally obtained according to the following expression. […]

For series [4] the test system is unchanged. In words: Schedule of administration in combination with docetaxel (Example 2 (2)). In kind it is in vivo, nude mice. On the procedure:
The study was performed according to the method in Example 1, except that docetaxel was used in place of paclitaxel. Furthermore, administration of Compound 1 was initiated from the administration day of docetaxel. Group 1 was defined as a control group. Docetaxel was dissolved in anhydrous ethanol and Tween 80 and thereafter diluted with 5% glucose injection liquid and intravenously administered in a dose of 30 mg/kg twice, i.e., on day 1 and day 8 (Group 2 and 4). In Group 3 and 4, Compound 1 was orally administered twice per day in a dose of 60 mg/kg, from the administration day of docetaxel for 4 days and from day 8 of docetaxel administration for 4 days.
In Group 3 and 4, the dose of Compound 1 per day was 120 mg/kg/day. Note that, in FIG. 2 (B), Group 1 is represented by Control, Group 2 by Docetaxel alone, Group 3 by Compound 1 alone and Group 4 by Combo (4 days).

Series [5] in a line: Evaluation of oral absorption property. In kind it is in vivo, BALE/cA mice. The following applies: oral administration in 0.5% HPMC, plasma 0.5-6 hours, LCMS. On the procedure:
A test compound was suspended or dissolved in 0.5% HPMC and orally administered to BALE/cA mice. At the time points of 0.5, 1, 2, 4 and 6 hours after oral administration, blood was sampled from the back of the eye to obtain blood plasma. The concentration of the compound in the obtained blood plasma was measured by LCMS and evaluated for oral absorption property.

Sequence of human Aurora B (Q96GD4 whole entry): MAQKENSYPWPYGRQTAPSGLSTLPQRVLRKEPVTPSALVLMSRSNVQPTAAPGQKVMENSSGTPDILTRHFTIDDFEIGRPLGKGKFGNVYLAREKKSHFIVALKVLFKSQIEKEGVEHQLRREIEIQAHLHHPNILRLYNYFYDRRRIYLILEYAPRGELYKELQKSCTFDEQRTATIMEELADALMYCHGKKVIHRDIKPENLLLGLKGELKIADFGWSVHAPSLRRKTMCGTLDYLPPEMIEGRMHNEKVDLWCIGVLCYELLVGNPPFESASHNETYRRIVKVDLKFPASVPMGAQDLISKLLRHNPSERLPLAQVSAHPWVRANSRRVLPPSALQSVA
Sequence of human Aurora B (Q9NQS7 803-916 partner): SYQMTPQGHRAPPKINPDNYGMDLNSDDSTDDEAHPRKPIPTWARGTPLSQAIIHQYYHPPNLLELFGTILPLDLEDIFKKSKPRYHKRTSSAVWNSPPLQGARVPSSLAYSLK
Sequence of human Aurora A (O14965 whole entry, the tested form may be a part): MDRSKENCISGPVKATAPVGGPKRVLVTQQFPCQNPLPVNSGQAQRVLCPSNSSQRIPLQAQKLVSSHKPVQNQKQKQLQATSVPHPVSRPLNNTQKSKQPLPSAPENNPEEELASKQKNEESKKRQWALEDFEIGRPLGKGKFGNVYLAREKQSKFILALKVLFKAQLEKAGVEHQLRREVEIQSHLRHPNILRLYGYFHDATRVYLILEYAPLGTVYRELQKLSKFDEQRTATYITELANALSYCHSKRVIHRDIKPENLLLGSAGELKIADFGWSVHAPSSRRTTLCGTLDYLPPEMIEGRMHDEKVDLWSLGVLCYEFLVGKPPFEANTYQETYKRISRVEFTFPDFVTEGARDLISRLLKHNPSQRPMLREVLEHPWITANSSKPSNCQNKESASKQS

In the case of `O=C(O)[C@]1(Cc2cccc(Nc3nccs3)n2)CC[C@@H](Oc2cccc(Cl)c2F)CC1` [MK-5108], the “antitumor effect in combination with docetaxel” value in series [1] is “enhancement of an antitumor effect is confirmed”.
Turning to `Cc1cc(Nc2nc(CC3(C(=O)O)CCN(C(=O)c4cccc(Cl)c4Cl)CC3)ccc2F)n[nH]1` [Production Example 1, 1-(2,3-dichlorobenzoyl)-4-((5-fluoro-6-(5-methyl-1H-pyrazol-3-ylamino)pyridin-2-yl)methyl)piperidine-4-carboxylic acid], the “number of CR cases” value in series [2] (Group 2: paclitaxel 10 mg/kg iv, from next day Compound 1 30 mg/kg po twice per day for one day (sequential)) is recorded as “no CR cases”; in series [2] (Group 3: paclitaxel 10 mg/kg iv, from next day Compound 1 30 mg/kg po twice per day for 4 days (sequential)), 2; in series [2] (Group 4: paclitaxel 10 mg/kg iv, from same day Compound 1 30 mg/kg po twice per day for 2 days (concurrent)) it was “one”; in series [2] (Group 5: paclitaxel 10 mg/kg iv, from same day Compound 1 30 mg/kg po twice per day for 4 days (concurrent)) it was 4. Besides, the “toxicity / side effect” value in series [2] (Group 3 and 5: paclitaxel 10 mg/kg iv plus Compound 1 30 mg/kg po bid for 4 days) is on record as “no serious toxicity such as death was observed”; in series [3] (Group 4 and 5: paclitaxel 60 mg/kg iv plus Compound 1 60 mg/kg po bid for 2 or 4 days per cycle), “no significant toxicity such as death was observed”; in series [4] (Group 4: docetaxel 30 mg/kg iv plus Compound 1 60 mg/kg po bid for 4 days per cycle), “no significant toxicity such as death was observed”. Besides, the pIC50 against human Aurora A is 9.40; against human Aurora B, 6.85. Further, the “tumor volume, Combo (4 days) versus Combo (2 days)” value in series [3] (paclitaxel 60 mg/kg iv day 1 and 8, Compound 1 60 mg/kg po bid for 4 days (Group 5) vs 2 days (Group 4) per 7-day cycle) is reported as “smaller than that of Group 4; also recorded: stronger antitumor enhancing effect”. In addition, in series [4] (docetaxel 30 mg/kg iv day 1 and 8, Compound 1 60 mg/kg po bid for 4 days from day 1 and day 8), the “antitumor effect (tumor volume), Combo (4 days)” value is reported as “an antitumor effect is exerted”. For the same compound, the “oral absorption property (concentration in blood plasma)” value in series [5] is on record as “satisfactory oral absorption property”.
